Measurements: US7528133B1, “Use of thiazolidinediones derivatives for preventing uterine contractions in premature labour or lactation” (The Board of Regents of The University of Texas System, priority 1998, dated 2009)
Where two headings read alike, the source gives them in different places.

Assays:
[1] = target: T1, oxytocin receptors (OTR) (Homo sapiens, UniProt P30559); assay: Competition with 125I-OTA for OTR binding, whole-cell assay in human myometrial cells; details: for affinity for OTR binding: FIG. 1
T1 construct: endogenous in cells; host or cells: primary human term pregnant myometrial cells (from C-section tissue, collagenase dispersion)
T1 sequence (P30559 1-389): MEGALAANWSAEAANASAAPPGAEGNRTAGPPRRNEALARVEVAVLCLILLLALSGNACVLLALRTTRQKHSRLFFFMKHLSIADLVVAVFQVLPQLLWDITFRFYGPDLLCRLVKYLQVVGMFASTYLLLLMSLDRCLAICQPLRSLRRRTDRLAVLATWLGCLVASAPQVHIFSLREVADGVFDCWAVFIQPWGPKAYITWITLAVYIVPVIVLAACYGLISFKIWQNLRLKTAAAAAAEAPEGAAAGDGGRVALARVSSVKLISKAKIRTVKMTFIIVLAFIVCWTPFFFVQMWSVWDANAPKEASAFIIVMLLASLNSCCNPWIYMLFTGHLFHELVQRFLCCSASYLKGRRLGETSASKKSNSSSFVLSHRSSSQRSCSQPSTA
Experimental: FIG. 1. […] Percent inhibition of ^125I-OTA binding in human myometrial cells.
Determination of OTR ligand binding: OTA was monoiodinated as previously described (Hinko and Soloff, 1992). The specific activity of the iodinated peptide was 2000 Ci/mmol at the time of preparation. Whole cell assays for specific OTR binding activity were performed as described previously, using increasing concentrations of [^125I]OTA (Copland et al., 1999). The concentration of cellular DNA was determined in parallel, using the Hoechst dye H 33258 and a Hoefer DyNA Quant fluorometer according to the manufacturer's instructions.
The specific binding was determined by subtracting […]. Specific binding was expressed as a percent of total binding. All points were done in triplicate.

[2] = tested on: oxytocin receptor (OTR) in human term myometrial cells; assay: Oxytocin-induced intracellular calcium transients in human term myometrial cells (Fura-2, single cells); assay type: cell-based; details: 0.001 μg/ml (2.2 nM) troglitazone, 1 min before 10 nM oxytocin; FIG. 3B
Experimental: FIGS. 3A-H. Change in intracellular cytoplasmic calcium levels in human term myometrial cells in culture. Each line represents the change in calcium for a single cell. Cells were either pretreated with troglitazone for one minute and then treated with oxytocin, bombesin (BBS), or bradykinin. These three agents cause an increase in intracellular calcium and cause uterine contraction under the correct circumstance. Cells were grown in 10% FBS, DMEM, penicillin/streptomycin resulting in elevated OTR levels. Cells were then put into KRH buffer containing Fura-2. The cells take up Fura-2 allowing for detection in changes of cytoplasmic levels of calcium. Cells were then treated as described for each figure. […] There is no effect of troglitazone at this concentration upon oxytocin-stimulated calcium transients.
Cell Culture Conditions: The proper protocols were followed in obtaining human term myometrium tissue from mother's delivering via C-section. Human term pregnant myometrial cells were isolated by collagenase dispersion and were grown in media consisting of Delbecco's modified eagles media (DMEM) supplemented with 10% fetal bovine serum (FBS), and 2% penicillin/streptomycin in a humidified tissue culture incubator at 37° C. under an atmosphere of 5% CO2 and 95% air. […]

[3] = tested on: oxytocin induced uterine contractions; details: Thornton et al. 1999; cited from earlier work
[4] = FIG. 1, read-out: IC50, 125I-OTA binding to OTR

In the case of `Cc1c(C)c2c(c(C)c1O)CCC(C)(COc1ccc(CC3SC(=O)NC3=O)cc1)O2` (racemic) [troglitazone, ±5-[[4-[(3,4-dihydro-6-hydroxy-2,5,7,8-tetramethyl-2H-1-benzopyran-2-yl)methoxy]phenyl]methyl]-2,4-thiazolidinedione], the IC50 ([1]; FIG. 1, read-out: 50% inhibitory concentration (IC50), 125I-OTA binding to OTR) is reported as 0.0157 µM and the “effect on oxytocin-stimulated calcium transients” value [2] is reported as “no effect”.

For `CC(=O)[C@H]1CC[C@H]2[C@@H]3CC[C@H]4CC(=O)CC[C@]4(C)[C@H]3CC[C@]12C` [5β-dihydroprogesterone], the IC50 [1, 4] is listed as ~100 µM and the “concentration needed to inhibit oxytocin induced uterine contractions” value [3] is listed as 100 µM.

For `C[C@]12CC[C@@H]3c4ccc(O)cc4CC[C@H]3[C@@H]1CC[C@@H]2O` [17β-estradiol], the “affinity for OTR binding” value [1] was “no affinity”.

Work on `CN(CCOc1ccc(CC2SC(=O)NC2=O)cc1)c1ccccn1` (centres unmarked) [BRL49653, rosiglitazone] yielded an IC50 [1, 4] of ~10.6 µM.

In the case of `Cc1c(C)c2c(c(C)c1OC(=O)CCC(=O)O)CC[C@@](C)(CCC[C@H](C)CCC[C@H](C)CCCC(C)C)O2` [Vitamin E succinate], the “affinity for OTR binding” value [1] is reported as “no affinity”.

Work on `CCc1ccc(CCOc2ccc(CC3SC(=O)NC3=O)cc2)nc1` (centres unmarked) [pioglitazone] yielded an IC50 [1, 4] of ~10.6 µM.
